Molecules are shown by their SMILES. “And” between values parts separate entries of the source, which are not always exact repeats. Equal values may be shown once.

The IC50 is the midpoint of a concentration-inhibition curve. A low value points to inhibition by little substance.

One series concerns Huh-7 (human hepatoma). In words: CellTiter-Glo luminescent cell viability assay, human hepatoma cells. The note with it: Huh-7, 48 h.
Series [1] deals with human leukemia xenografts (HL60). In words: Experiment 2: suppression of leukemia (HL60) xenografts with doxorubicin and 3′-deoxyadenosine. Type of series: in vivo, BALB/c nude mouse. As to the method:
(§1) Human leukemia cells HL60, human gastric cancer cell line SGC-7901, human breast cancer cells MCF-7, human colon cancer cells HT-29, human lung cancer cells A-549, and human hepatoma cells Huh-7 were routinely cultured in vitro and digested and centrifuged to prepare cell suspensions at a concentration of about 1×10^7 cells/mL, respectively, which were inoculated subcutaneously in the right armpits of the mice at 0.2 mL per mouse.
(§2) The inoculated well-grown subcutaneously xenografted tumors were removed and cut into tumor tissue blocks with a size of about 2×2×2 mm for later use. After being anesthetized, the mice were placed in the left lateral decubitus position, the tumor tissue blocks were put into the armpits of the mice, the skin was sutured and disinfected, and then the mice were put back into the cages and fed normally. The mice were grouped after the tumors grew to have a diameter of about 7 to 8 mm. […] The longer diameter (a) and shorter diameter (b) of each of the solid tumors were measured twice per week after the first administration, the tumor volume was calculated according to the formula: volume (V)=½×a×b^2, and the animals were weighed. […] The data obtained were analyzed by SPSS statistical analysis software. […]

Series [2] has as its system MCF-7 (human breast cancer). In words: CellTiter-Glo luminescent cell viability assay, human breast cancer cells. Type of series: cell-based. The note with it: MCF7, MCF-7, 48 hours, drug used alone. On the procedure:
The above tumor cell line derived from ATCC was cultured in an incubator with 5% CO2 at 37° C.
(4). The culture plate was cultured overnight in an incubator with 5% CO2 and 100% relative humidity at 37° C.
(In general: Cellular ATP, detected with luciferase, serves as a proxy for viable cell number.)

Series [3] relates to human hepatoma xenografts (Huh-7). In words: Experiment 5: suppression of hepatoma (Huh-7) xenografts with doxorubicin and 3′-deoxyadenosine. It is filed as in vivo, BALB/c nude mouse. The settings on record: doxorubicin 2.5 mg/kg, 37th day.
Description: (§3) The inoculated well-grown subcutaneously xenografted tumors were removed and cut into tumor tissue blocks with a size of about 2×2×2 mm for later use. After being anesthetized, the mice were placed in the left lateral decubitus position, the tumor tissue blocks were put into the armpits of the mice, the skin was sutured and disinfected, and then the mice were put back into the cages and fed normally. The mice were grouped after the tumors grew to have a diameter of about 7 to 8 mm. […] The general symptoms of the animals were observed before and after the administration. The longer diameter (a) and shorter diameter (b) of each of the solid tumors were measured twice per week after the first administration, the tumor volume was calculated according to the formula: volume (V)=½×a×b^2, and the animals were weighed. The drug was discontinued after administration for 14 days. On the 7th day after stopping the administration, the animals were weighed and then were sacrificed by cervical dislocation, and the solid tumors were removed and weighed. The data obtained were analyzed by SPSS statistical analysis software.
On the 23rd day after inoculation of the mice with human hepatoma Huh-7 cells, xenografted tumor models were successful, and then treated with drugs.
Series [4] deals with hepatoma cell line Huh-7, and breast cancer cell lines T47D and MCF-7. In words: Previous work: in vitro cultured human solid tumor cells treated with 3′-deoxyadenosine alone. Type of series: cell-based. The settings on record: Huh-7, T47D and MCF-7, inventors' previous work. The text has this:
However, its effect was still not satisfactory.

Series [5] concerns human gastric cancer (SGC 7901). In words: Experiment 9: suppression of gastric cancer (SGC 7901) xenografts with 5-fluorouracil and 3′-deoxyadenosine. It is filed as in vivo, BALB/c nude mouse. The note with it: 5-fluorouracil 6 mg/kg, intravenous, 28th day.
Description: as §3
Each group was administered with a drug once daily (volume 0.2 mL, intravenously) and measured twice per week.
Series [6] deals with human gastric cancer xenografts (SGC-7901). In words: Experiment 6: suppression of gastric cancer (SGC-7901) xenografts with capecitabine and 3′-deoxyadenosine. It is filed as in vivo, BALB/c nude mouse. The note with it: capecitabine 400 mg/Kg, 27th day.
Description: as §3
Series [7] relates to human colon cancer xenografts (HT-29). In words: Experiment 7: suppression of colon cancer (HT-29) xenografts with capecitabine and 3′-deoxyadenosine. It is filed as in vivo, BALB/c nude mouse. The settings on record: capecitabine 400 mg/Kg, 31st day.
Description: as §3
Series [8] concerns human breast cancer xenografts (MCF-7). In words: Experiment 1: suppression of breast cancer (MCF-7) xenografts with capecitabine and 3′-deoxyadenosine. Type of series: in vivo, BALB/c nude mouse. The note with it: capecitabine 400 mg/Kg/day. On the procedure: as §1, §2
The subject of series [9] is human lung cancer xenografts (A-549). In words: Experiment 4: suppression of lung cancer (A-549) xenografts with cisplatin and 3′-deoxyadenosine. Type of series: in vivo, BALB/c nude mouse. On the procedure: as §1
The inoculated well-grown subcutaneously xenografted tumors were removed and cut into tumor tissue blocks with a size of about 2×2×2 mm for later use. After being anesthetized, the mice were placed in the left lateral decubitus position, the tumor tissue blocks were put into the armpits of the mice, the skin was sutured and disinfected, and then the mice were put back into the cages and fed normally. The mice were grouped after the tumors grew to have a diameter of about 7 to 8 mm. Generally, after being grouped, the mice were administered by gavage with a drug or with a blank solution (solvent: 0.9% (g/mL) sodium chloride injection) for continuous 14 days, once per day, administrated at a volume of 20 mL/kg. Special situations will be described separately in corresponding examples. The general symptoms of the animals were observed before and after the administration. The longer diameter (a) and shorter diameter (b) of each of the solid tumors were measured twice per week after the first administration, the tumor volume was calculated according to the formula: volume (V)=½×a×b^2, and the animals were weighed. The drug was discontinued after administration for 14 days. On the 7th day after stopping the administration, the animals were weighed and then were sacrificed by cervical dislocation, and the solid tumors were removed and weighed. The data obtained were analyzed by SPSS statistical analysis software.
Formula for Evaluation of the Therapeutic Efficacy: Tumor-growth inhibition rate=(average tumor weight in solvent control group−average tumor weight in administered control group)/average tumor weight in solvent control group×100%.
On the 14th day after inoculation of the mice with lung cancer A-549 cells, xenografted tumor models were successful, and then treated with drugs. Refer to FIG. 4 for experimental results.

Protocol for Huh-7 (human hepatoma): The above tumor cell line derived from ATCC was cultured in an incubator with 5% CO2 at 37° C. The cell line was subcultured twice per week by trypsinization. Cells in the logarithmic growth phase were used for plating.
The concentration of the cells was adjusted to 2×10^4 cells/ml (about 2.0×10^3 cells/well).
(3) 100 μl of a cell suspension was added to each well in the culture plate, and a cell-free culture solution was added to the blank control wells.
Dosing: 5 μl of the compound working solution (20×) was taken and added to the cell culture plate. 5 μl of a mixed solution of DMSO-cell culture solution was added to the solvent control and the blank control.
The 96-well culture plate was put back to the incubator for culture for 48 hours.
The following steps were performed according to the instructions of the Promega CellTiter-Glo Luminescent Cell Viability Assay Kit (Promega-G7571).
(6) 80 μl of the CellTiter-Glo working solution was added to each well. The cell plate was covered with aluminum foil to protect it from light.
The culture plate was shaken on an orbital shaker for 2 minutes to induce cell lysis.
The culture plate was allowed to stand at room temperature for 10 minutes to stabilize a luminescent signal.

Regarding `COc1cccc2c1C(=O)c1c(O)c3c(c(O)c1C2=O)C[C@@](O)(C(=O)CO)C[C@@H]3O[C@H]1C[C@H](N)[C@H](O)[C@H](C)O1` [doxorubicin], the IC50 in the series on Huh-7 (human hepatoma) is 1.2 µM; in series [2], 0.51 µM. The tumor-growth inhibition rate turned out to be 21.4% in series [1] (doxorubicin 60 mg/kg/week (20 mg/kg each time, 3 times/week), 14th day) and 25.7% in series [3]. Besides, in series [1] (doxorubicin 60 mg/kg/week, 14th day of the experiment, 7 mice per group), the experimental animals died entry is “one experimental animal in this group died”.
Turning to `Nc1ncnc2c1ncn2[C@@H]1O[C@H](CO)C[C@H]1O` [3′-deoxyadenosine], the inhibition of proliferation result in series [4] is “could inhibit the proliferation”. The results for the IC50 (in the series with Huh-7 (human hepatoma); in [2]) were 1.35 µM and 0.85 µM, respectively.
Regarding `CC(=O)O[C@H]1C(=O)[C@@]2(C)[C@H]([C@H](OC(=O)c3ccccc3)[C@]3(O)C[C@H](OC(=O)[C@H](O)[C@@H](NC(=O)c4ccccc4)c4ccccc4)C(C)=C1C3(C)C)[C@]1(OC(C)=O)CO[C@@H]1C[C@@H]2O` [paclitaxel], the IC50 in series [2] came to 0.742 µM.
For the compound `O=c1[nH]cc(F)c(=O)[nH]1` [5-fluorouracil], the inhibition rate in series [5] came out at 67.5%.
With `CCCCCOC(=O)Nc1nc(=O)n([C@@H]2O[C@H](C)[C@@H](O)[C@H]2O)cc1F` [capecitabine], the figures for the inhibition rate in series [6] and in [7] were 57.8% and 80.1%, respectively. The experimental animals died in series [8] (11th day of the experiment, 7 mice per group) worked out at 5. The tumor inhibition rate in [8] (11th day, vs normal saline group) is listed as 86.1%.
`N.N.[Cl][Pt][Cl]` [cisplatin]: the mice died entry in series [9] (cisplatin 5 mg/kg/day, 7th day, 7 mice per group) is “two nude mice died”; in series [9] (cisplatin 5 mg/kg/day, 10th day, 7 mice per group), 4. In addition, the “mice died (total)” value in series [9] (cisplatin 5 mg/kg/day, reduced to 2.5 mg/kg on the 15th day, 18th day, 7 mice per group) is 5 and 5/7. Moreover, in series [9] (high-dosage cisplatin (5 mg/kg)), the “inhibitory effect on tumor growth” value is “good inhibitory effect on tumor growth”.

(Values after patent US11179349B2, “Use of tumor gene methylation regulator and anti-tumor drugs” (priority 2016, dated 2021).)
